Values belong to the compound of their own block, whether it stands above or below them.
Assays:
Rattus norvegicus [1] = assay: Effective dose was determined in hypercholesterolemic rats for lowering total serum cholesterol compared to control upon peroral administration; format: functional; details: po
Rattus norvegicus [2] = assay: Minimum effective dose was determined in hypercholesterolemic rats for lowering total cholesterol level compared to control upon peroral administration; format: functional; details: po, read-out: MED
Rattus norvegicus [3] = assay: Dose which was not showing any cardiac effect in normal cholesterol rats upon peroral administration; format: functional
[4] = biological target: T1, Thyroid hormone receptor beta (Rattus norvegicus, UniProt P18113); assay: Ability to inhibit the bound [125I]L-T3 rat liver Nuclear L-triiodothyronine receptor is determined in vitro.
T1 sequence (P18113 whole entry): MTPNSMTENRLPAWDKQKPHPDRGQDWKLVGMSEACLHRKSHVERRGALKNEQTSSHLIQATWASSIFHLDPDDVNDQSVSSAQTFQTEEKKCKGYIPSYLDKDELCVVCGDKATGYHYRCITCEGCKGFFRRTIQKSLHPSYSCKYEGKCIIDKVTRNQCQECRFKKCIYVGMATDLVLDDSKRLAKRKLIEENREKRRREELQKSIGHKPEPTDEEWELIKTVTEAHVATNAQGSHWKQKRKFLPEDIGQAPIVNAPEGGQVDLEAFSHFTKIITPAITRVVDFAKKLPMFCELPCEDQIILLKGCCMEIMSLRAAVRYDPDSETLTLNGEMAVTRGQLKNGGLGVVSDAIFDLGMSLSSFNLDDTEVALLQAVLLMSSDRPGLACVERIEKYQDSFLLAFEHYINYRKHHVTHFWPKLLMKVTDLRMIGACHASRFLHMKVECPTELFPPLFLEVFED

Rattus norvegicus [5] = assay: Percent change in serum LDL level was determined in hypercholesterolemic rats at 100 ug/Kg upon peroral administration; format: functional
Rattus norvegicus [6] = assay: Percent change in serum HDL level was determined in hypercholesterolemic rats at 100 ug/Kg upon peroral administration; format: functional
Rattus norvegicus [7] = assay: Percent change in serum LDL level was determined in hypercholesterolemic rats at 25 ug/Kg upon peroral administration; format: functional
Rattus norvegicus [8] = assay: Percent change in serum HDL level was determined in hypercholesterolemic rats at 25 ug/Kg upon peroral administration; format: functional
Rattus norvegicus [9] = assay: Percent change in serum HDL level was determined in hypercholesterolemic rats at 10 ug/Kg upon peroral administration; format: functional
Rattus norvegicus [10] = assay: Percent change in serum LDL level was determined in hypercholesterolemic rats at 10 ug/Kg upon peroral administration; format: functional

SMILES: CC(C)c1cc(Oc2c(Cl)cc(NC(=O)C(=O)O)cc2Cl)ccc1O
ED50 (Rattus norvegicus [1]): 0.05 mg/kg
minimal effective dose (Rattus norvegicus [2]): 0.0125 mg/kg
Dose (Rattus norvegicus [3]): 10 mg/kg

IC50 [4]: 12 nM
SMILES: Cc1cc(NCC(=O)O)cc(C)c1Oc1ccc(O)c(C(C)C)c1

SMILES: N[C@@H](Cc1cc(I)c(Oc2ccc(O)c(I)c2)c(I)c1)C(=O)O [LIOTHYRONINE]
ED50 (Rattus norvegicus [1]): 0.1 mg/kg
Change (Rattus norvegicus [5]): -65%
minimal effective dose (Rattus norvegicus [2]): 0.025 mg/kg
Dose (Rattus norvegicus [3]): <0.025 mg/kg
Change (Rattus norvegicus [6]): -8%

SMILES: Cc1cc(NC(=O)C(=O)O)cc(C)c1Oc1ccc(O)c(C(C)C)c1
ED50 (Rattus norvegicus [1]): 0.02 mg/kg
minimal effective dose (Rattus norvegicus [2]): 0.01 mg/kg
Dose (Rattus norvegicus [3]): 10 mg/kg
Change (Rattus norvegicus [7]): -67%
Change (Rattus norvegicus [8]): -5%

IC50 [4]: 48 nM
SMILES: CC(Nc1cc(Cl)c(Oc2ccc(O)c(C(C)C)c2)c(Cl)c1)C(=O)O (stereo unspecified)

IC50 [4]: 1.1 nM
SMILES: CC(C)c1cc(Oc2c(Cl)cc(NCC(=O)O)cc2Cl)ccc1O

SMILES: CC(C)c1cc(Oc2c(Br)cc(CCC(=O)O)cc2Br)ccc1O
IC50 [4]: 0.11 nM

SMILES: CCOC(=O)C(=O)Nc1cc(C)c(Oc2ccc(O)c(C(O)c3ccc(F)cc3)c2)c(C)c1 (stereo in doubt; 23a) [AXITIROME]
Change (Rattus norvegicus [9]): 0%
ED50 (Rattus norvegicus [1]): 0.005 mg/kg
minimal effective dose (Rattus norvegicus [2]): < 0.001 mg/kg
Dose (Rattus norvegicus [3]): >25 mg/kg
Change (Rattus norvegicus [10]): -73%

IC50 [4]: 58 nM
SMILES: CC(C)c1cc(Oc2c(Cl)cc(NC(Cc3ccccc3)C(=O)O)cc2Cl)ccc1O (stereo unspecified)

IC50 [4]: 3.5 nM
SMILES: Cc1cc(SCC(=O)O)cc(C)c1Oc1ccc(O)c(C(C)C)c1

IC50 [4]: 1.5 nM
SMILES: CC(C)c1cc(Oc2c(Br)cc(SCC(=O)O)cc2Br)ccc1O

IC50 [4]: 0.1 nM
SMILES: CC(C)c1cc(Oc2c(Br)cc(OCC(=O)O)cc2Br)ccc1O

IC50 [4]: 0.31 nM
SMILES: CC(C)c1cc(Oc2c(I)cc(NCC(=O)O)cc2I)ccc1O

IC50 [4]: 34 nM
SMILES: CCOC(=O)C(=O)Nc1cc(C)c(Oc2ccc(OC)c(C(O)c3ccc(F)cc3)c2)c(C)c1 (stereo unspecified)

SMILES: Cc1cc(NC(Cc2ccccc2)C(=O)O)cc(C)c1Oc1ccc(O)c(C(C)C)c1 (stereo unspecified)
IC50 [4]: 400 nM

IC50 [4]: > 5000 nM
SMILES: Cc1cc(CCC(=O)O)cc(C)c1Oc1ccc(O)c(C(C)C)c1

IC50 [4]: 550 nM
SMILES: Cc1cc(NC(C)C(=O)O)cc(C)c1Oc1ccc(O)c(C(C)C)c1 (stereo unspecified)

— ChEMBL document CHEMBL1128246, “Synthesis and structure-activity relationships of oxamic acid and acetic acid derivatives related to L-thyronine” (J Med Chem, 1995)
